In patent US20230100789A1, “Method for activating AMPK and the use of Adenine” (Energenesis Biomedical Co., Ltd., priority 2013, published 2023):

How the values were obtained:
TNFα = assay: LPS-induced inflammatory response in THP1 macrophage, secreted TNFα (ELISA); type: cell-based, human; conditions: THP1 macrophages, 50 ng LPS 6 hr
Description: (§1) Effects of adenine on inflammatory response were evaluated in human THP1 macrophage by examining protein level of intracellular COX-2 and secreted TNFα, IL-1β and IL-6. Differentiation of THP1 monocytes into macrophages was induced by 50 nM PMA for 24 hr. THP1 macrophages were further stimulated by 50 ng LPS for 6 hr in the presence of 10-600 μM of adenine or vehicle followed by cell lysis and western blot analysis. Equal amounts of protein were separated by SDS-PAGE and then electroblotted on to PVDF membranes. Membranes were blocked with 3% BSA in PBS for 60 min and incubated with an anti-COX-2 antibody (1:1,000, Cell signaling), an anti-actin antibody (1:5,000, Cell signaling) at 4° C. overnight followed by the corresponding secondary antibody for 1 h at room temperature (RT). Immunoreactive bands were detected by enhanced chemiluminescence (ECL; Pierce, Rockford, Ill., USA) and recorded using Kodak film (Rochester, N.Y., USA). The detected signals were scanned and then quantified using TotalLab Quant software (TotalLab). The secreted TNFα, IL-1β and IL-6 were analyzed by enzyme-linked immunosorbent assays.

IL-1β = assay: LPS-induced inflammatory response in THP1 macrophage, secreted IL-1β (ELISA); type: cell-based, human; conditions: THP1 macrophages, 50 ng LPS 6 hr
Description: as §1

LC3 = assay: Autophagy assay in Neuro2A cells (LC3-II/LC3-I western blot); type: cell-based, mouse; conditions: 24 h
Description: Amyloid β peptide and autophagy assay Effects of adenine on Amyloid β peptide were analyzed in mouse neuroblastoma cell Neuro2A. Neuro2A cells were cultured in high-glucose Dulbecco's modified Eagle's medium (DMEM) containing 10% fetal bovine serum (FBS), 4 mM L-glutamine, 2 mM sodium pyruvate and 1% penicillin/streptomycin (Invitrogen GibcoBRL, Carlsbad, Calif., USA) at 37° C. under 5% CO2. Cells were plated at 3×10^5 per well (6-well plate). 24 h after plating, cells were transfected with human APP695 and treated with indicated concentration of adenine for 24 h followed by cell lysis and western blot analysis. Equal amounts of protein were separated by SDS-PAGE and then electroblotted on to PVDF membranes. Membranes were blocked with 3% BSA in PBS for 60 min and incubated with an anti-Aβ antibody (1:1,000, abcam), an anti-LC3 antibody (1:1,000, Cell signaling), and an anti-actin antibody (1:5,000, Cell signaling) at 4° C. overnight followed by the corresponding secondary antibody for 1 h at room temperature (RT). Immunoreactive bands were detected by enhanced chemiluminescence (ECL; Pierce, Rockford, Ill., USA) and recorded using Kodakfilm (Rochester, N.Y., USA). The detected signals were scanned and then quantified by using TotalLab Quant software (TotalLab).
Because the conversion of LC3-I to LC3-II is indicative of autophagy activity, the higher LC3-II/LC3-I ratio in adenine treated cells reflects the ability of adenine to induce autophagy activity.

3T3 cells = assay: Fibroblast proliferation assay (trypan blue cell counting); type: cell-based, Human; conditions: 72 h, mean±SEM
Description: Human fibro blast cell line 3T3 were cultured in high-glucose Dulbecco's modified Eagle's medium (DMEM) containing 10% fetal bovine serum (FBS), 4 mM L-glutamine, 2 mM sodium pyruvate and 1% penicillin/streptomycin (Invitrogen GibcoBRL, Carlsbad, Calif., USA) at 37° C. under 5% CO2. For cell proliferation assay, 3T3 cells were plated at 1×10^5 per well (6-well plate). 24 h after plating, cells were treated with indicated concentration of adenine for 72 h and the number of viable cells was counted. Cells were detached using trypsin-EDTA solution and stained with trypan blue. The living cells were counted using hemocytometer. […] Data are presented as the mean±SEM of three independent experiments.

high-fat diet-fed mice = assay: Anti-diabetic effects in high-fat diet-fed mice (type 2 diabetes model); type: in vivo, C57BL/6J mice; conditions: IP 0.1 to 50 mg/kg twice a day for 6 days
Description: To further evaluate the effects of adenine on the modulation of plasma glucose level, the high-fat diet-fed mice were served as a type 2 diabetes animal model. C57BL/6J mice were maintained at 22° C. under a 12-h light/dark cycle and fed either a high fat diet (60% kcal % fat) or a normal diet ad libitum. Intraperitoneal injections of adenine (0.1 to 50 mg/kg) or vehicle were given to the high-fat diet-fed mice from the age of 24 weeks and glucose readings were measure at 1 and 3 hr. IP administration of adenine or vehicle only to the high-fat diet-fed mice continued twice a day for 6 days. On day 6, plasma was collected 1 hr after the last dosing for analyzing, evaluating, measuring plasma glucose and triglycerides.

Aβ infusion mice = assay: Aβ-induced Alzheimer's disease model mice, Morris water maze; type: in vivo, C57BL/6J mice; conditions: daily IP 0.01, 0.1, 5 or 30 mg/kg for 4 weeks
Description: Aβ25-35 was purchased from Sigma-Aldrich (St. Louis, Mo.). The peptides were dissolved in distilled saline and aggregated by incubation at 37° C. for 7 days before injection. C57BL/6J mice were maintained at 22° C. under a 12-h light/dark cycle. Adult mice were anesthetized by ketamine (500 mg/kg) and xylazine (100 mg/kg) and placed in a stereotaxic frame (Stoelting, Wood Dale, Ill., USA). 5 nmol of the aggregated A1325-35 were injected into the lateral ventricle using a 10-μ1 Hamilton syringe (Hamilton Company, Reno, Nev., USA). The target anterior-posterior (AP), medial-lateral (ML) and dorsoventral coordinates were −0.5 mm, ±1 mm and −2.5 mm relative to the bregma. To evaluate the effect of adenine on neurodegenerative disease, Aβ infusion mice were daily intraperitoneally injected with 0.01, 0.1, 5 or 30 mg/kg bodyweight of adenine or vehicle for 4 weeks. The cognitive functions of these mice were analyzed by using Morris water maze assay after 4 weeks injection. The water maze was performed in a circular pool filled with water and a platform was submerged below the water's surface in the target quadrant for hidden platform test. […] Mice were allowed to swim in the maze for 60 s and recorded by a video camera. The latency to find the platform and swim paths were analyzed by EthoVision software (Version 3.1, Noldus, The Netherlands).

[1] = test system: 6-mm full-thickness excisional skin wounds; assay: Excisional skin wound healing and scar formation in mice; type: in vivo, C57BL/6J mice
Description: C57BL/6J mice were maintained at 22° C. under a 12-h light/dark cycle. The experiments were performed with 12-weeks old mice. After anesthetized by an intraperitoneal injection of ketamine (500 mg/kg) and xylazine (100 mg/kg), 6-mm full-thickness excisional skin wounds was made on the backs of mice using 6-mm skin biopsy punches. Immediately after wounding, 10-1200 M of adenine in 25 l saline or saline alone was applied to the wound bed. The skin wounds were then covered by semipermeable transparent dressing and fixed to the skin. The mice were treated with adenine or vehicle for 14 days and then sacrificed. The scar formation is assessed by Masson's trichrome staining to observe the fibrosis process and the collagen framework of the healed wound (Fixed by 4% paraformaldehyde).

Nc1ncnc2nc[nH]c12 [Adenine, adenine]
TNF•(% to control) (TNFα; adenine 10 microM): 85 ± 9.1 % to control
TNF•(% to control) (TNFα; adenine 100 microM): 41 ± 2.6 % to control
TNF•(% to control) (TNFα; adenine 600 microM): 23 ± 1.8 % to control
IL-1β•(% to control) (IL-1β; adenine 10 microM): 91 ± 8.4 % to control
IL-1β•(% to control) (IL-1β; adenine 100 microM): 29 ± 5.5 % to control
IL-1β•(% to control) (IL-1β; adenine 600 microM): 17 ± 3.7 % to control
LC3-II/LC3-Iratio (relative to control) (LC3; adenine 10 microM): 1.2 ± 0.1 relative to control
LC3-II/LC3-Iratio (relative to control) (LC3; adenine 20 microM): 1.8 ± 0.3 relative to control
LC3-II/LC3-Iratio (relative to control) (LC3; adenine 30 microM): 2.8 ± 0.2 relative to control
LC3-II/LC3-Iratio (relative to control) (LC3; adenine 40 microM): 2.9 ± 0.2 relative to control
LC3-II/LC3-Iratio (relative to control) (LC3; adenine 50 microM): 3.2 ± 0.3 relative to control
Cell number (% to control) (3T3 cells; adenine 10 microM): 91 ± 2.7 % to control
Cell number (% to control) (3T3 cells; adenine 50 microM): 73 ± 8.1 % to control
Cell number (% to control) (3T3 cells; adenine 100 microM): 64 ± 5.3 % to control
Cell number (% to control) (3T3 cells; adenine 200 microM): 48 ± 2.8 % to control
Cell number (% to control) (3T3 cells; adenine 500 microM): 33 ± 6.4 % to control
Cell number (% to control) (3T3 cells; adenine 1000 microM): 27 ± 11.3 % to control
lower body weight compare to the control group (high-fat diet-fed mice): more than 15%
lower plasma glucose compare to the control group (high-fat diet-fed mice; plasma 1 hr after last dosing): > 30%
lower plasma triacylglycerides compare to the control group (high-fat diet-fed mice; plasma 1 hr after last dosing): more than 35%
lower plasma glucose compare to the control group (high-fat diet-fed mice; plasma 1 hr after last dosing, listed as adenine): more than 30%
percentage time in target quadrant, probe assay (Aβ infusion mice): higher percentage time in target quadrant
time to find platform, hidden platform test (Aβ infusion mice; dose-dependent): significantly shorter time to find platform
scar width ([1]; topical adenine, 14 days post-wounding, vs vehicle treated wounds): significantly decreased the scar width
extent of wound closure ([1]; topical, 10-1200 µM of adenine in 25 µl saline, 14 days of treatment, dose-dependent, vs control mice): significantly greater
